Experimental data: US20260201008A1, “SECRETIN-DERIVED GLP1R SELECTIVE AGONISTS” (GUBRA A/S, priority 2023, published 2026)
Like-named read-outs stand apart in the source and are kept apart here. Numbered stars: 1 amine (or outer) side, 2 acyl side, 3 side chain; on linkers, the order of the positions; unused ones are H or OH. Square brackets hold non-standard residues; d marks the D form. Side chains are listed from the residue outwards. Peptide text beside a SMILES is read from it. * marks the point of attachment. C20 diacid = O=C(O)CCCCCCCCCCCCCCCCCCC(=O)*; γGlu = O=C(O)[C@H](CCC(=O)[*:2])N[*:1]; AEEA = NCCOCCOCC(=O)O; Aib = CC(C)(N)C(=O)O

Tests used:
SCTR = SCTR (Homo sapiens, UniProt P47872); assay: hSCTR potency, cAMP accumulation in CHO-K1 cells stably overexpressing hSCTR; assay type: cell-based; set-up: alternatively Euroscreen ES-712-AF; FAST-0161L; host or cells: CHO-K1; settings: cAMP accumulation
Chain of SCTR (P47872 23-440): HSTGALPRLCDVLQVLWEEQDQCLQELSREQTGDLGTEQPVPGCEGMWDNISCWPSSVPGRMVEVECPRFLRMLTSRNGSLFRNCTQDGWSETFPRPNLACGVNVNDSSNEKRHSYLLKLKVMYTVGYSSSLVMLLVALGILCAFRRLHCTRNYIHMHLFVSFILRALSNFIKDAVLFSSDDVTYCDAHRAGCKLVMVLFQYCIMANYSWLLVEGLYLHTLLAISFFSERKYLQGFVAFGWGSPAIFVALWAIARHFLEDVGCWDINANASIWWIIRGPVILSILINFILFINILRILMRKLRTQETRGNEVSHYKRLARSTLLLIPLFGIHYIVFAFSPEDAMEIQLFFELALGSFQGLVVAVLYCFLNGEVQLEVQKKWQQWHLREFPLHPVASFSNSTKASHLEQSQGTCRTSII
Procedure, shortened: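 Thawed CHO-K1 cells carrying stable hSCTR are plated into casein/IBMX buffer (0.05%, 0.5 mM), dosed immediately for 30 min at room temperature, then cAMP is detected by TR-FRET. Purified peptides run as 11 three-fold dilutions in duplicate, and curves are fitted with variable slope.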

[1] = Fibril formation of crude library peptides (Thioflavin T); assay type: physicochemical; set-up: key: average ThT fluorescence emission at 480 nm (ex 450 nm), raw units; settings: Physical stability of peptides
Procedure, shortened: (§1)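 Turbidity is the absorbance at 600 nm, taken before heating. Fibril signal is the mean ThT emission at 480 nm (450 nm excitation), read every 10 min over 72 h at 40° C with 700 rpm shaking between reads. Peptides at 267 μM, pH 4.0 acetate or pH 7.0 phosphate buffer (50 mM), 4 μM ThT final.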

GLP1R = GLP1R (Homo sapiens, UniProt P43220); assay: hGLP1R potency, cAMP accumulation in CHO-K1 cells stably overexpressing hGLP1R; assay type: cell-based; set-up: host or cells: CHO-K1; settings: for EC50: cAMP accumulation; for SCTR EC50/GLP1R EC50 ratio: cAMP accumulation in CHO-K1 cells
Chain of GLP1R (P43220 24-463): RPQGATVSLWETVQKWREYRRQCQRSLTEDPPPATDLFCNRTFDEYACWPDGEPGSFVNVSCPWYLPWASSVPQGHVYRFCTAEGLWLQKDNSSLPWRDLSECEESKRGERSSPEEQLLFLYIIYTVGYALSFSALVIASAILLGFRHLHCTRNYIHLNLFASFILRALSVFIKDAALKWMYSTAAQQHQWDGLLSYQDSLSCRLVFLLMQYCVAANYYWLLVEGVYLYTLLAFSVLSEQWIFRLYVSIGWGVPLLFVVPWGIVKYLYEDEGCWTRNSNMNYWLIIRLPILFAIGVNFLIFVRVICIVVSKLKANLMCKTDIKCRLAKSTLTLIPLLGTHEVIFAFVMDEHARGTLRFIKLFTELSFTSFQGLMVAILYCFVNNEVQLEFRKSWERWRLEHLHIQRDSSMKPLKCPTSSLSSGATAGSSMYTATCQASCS
Procedure, shortened: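 2000 cells/well, DPBS + 0.05% casein + 0.5 mM IBMX; 30 min RT stimulation; HTRF cAMP detection after 1 h. Purified: 3-fold ×11, n=2; crude: 10-fold ×5, n=1. EC50 by variable-slope fit.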

[2] = Turbidity of crude library peptides (absorbance at 600 nm); assay type: physicochemical; settings: Physical stability of peptides
Procedure, shortened: as §1

[3] = CHO-K1 cells stably overexpressing hSCTR, read-out: hSCTR potency (pEC50) (converted)
[4] = CHO-K1 cells stably overexpressing hGLP1R, read-out: hGLP1R potency (pEC50) (converted)
[5] = selectivity ratio, hSCTR vs hGLP1R
[6] = CHO-K1 cells overexpressing hSCTR, read-out: hSCTR pEC50 (converted)
[7] = CHO-K1 cells overexpressing hGLP1R, read-out: hGLP1R pEC50 (converted)
[8] = selectivity for hGLP1R over hSCTR

Row | SMILES | EC50 (SCTR; [3]) [nM] | Fibril formation [1] | EC50 (GLP1R; [4]) [nM] | SCTR EC50/GLP1R EC50 ratio (GLP1R; [5]) | Turbidity (pH 7) [2] | EC50 (SCTR; [6]) [nM] | EC50 (GLP1R; [7]) [nM] | SCTR EC50/GLP1R EC50 ratio (GLP1R; [8]) | EC50 (SCTR; CHO-K1 cells overexpressing hSCTR, read-out: pEC50 hSCTR (converted)) [nM] | Selectivity (GLP1R; SCTR EC50/GLP1R EC50 ratio) | EC50 (GLP1R; CHO-K1 cells overexpressing hGLP1R, read-out: pEC50 hGLPR1 (converted)) [nM]
1 | CC(C)C[C@H](NC(=O)[C@H](Cc1ccc(O)cc1)NC(=O)[C@H](CO)NC(=O)[C@H](Cc1c[nH]c2ccccc12)NC(=O)[C@H](CC(=O)O)NC(=O)[C@H](CO)NC(=O)[C@@H](NC(=O)[C@H](Cc1ccccc1)NC(=O)[C@@H](NC(=O)CNC(=O)[C@H](CCC(=O)O)NC(=O)C(C)(C)NC(=O)[C@@H](N)Cc1c[nH]cn1)[C@@H](C)O)[C@@H](C)O)C(=O)N[C@@H](CCCCNC(=O)COCCOCCNC(=O)COCCOCCNC(=O)CC[C@H](NC(=O)CCCCCCCCCCCCCCCCCCC(=O)O)C(=O)O)C(=O)N[C@@H](CCC(=O)O)C(=O)N[C@@H](CCC(=O)O)C(=O)N[C@@H](C)C(=O)NC(C)(C)C(=O)N[C@@H](CC(C)C)C(=O)N[C@@H](CCC(N)=O)C(=O)N[C@@H](CCCNC(=N)N)C(=O)N[C@@H](Cc1ccccc1)C(=O)N[C@@H](CC(C)C)C(=O)N[C@@H](CCC(=O)O)C(=O)N[C@@H](Cc1c[nH]cn1)C(=O)N[C@@H](CC(C)C)C(=O)N[C@H](C(N)=O)C(C)C [compound 185] (H-H[Aib]EGTFTSDWSYLK([AEEA-AEEA-γGlu-C20 diacid])EEA[Aib]LQRFLEHLV-NH2) | 50.1 | 4198 | 0.00631 | 7444 | 0.08 |  |  |  |  |  | 
2 | CC(C)C[C@H](NC(=O)[C@H](Cc1ccc(O)cc1)NC(=O)[C@H](CO)NC(=O)[C@H](Cc1ccc(O)cc1)NC(=O)[C@H](CC(=O)O)NC(=O)[C@H](CO)NC(=O)[C@@H](NC(=O)[C@H](Cc1ccccc1)NC(=O)[C@@H](NC(=O)CNC(=O)[C@H](CCC(=O)O)NC(=O)C(C)(C)NC(=O)[C@@H](N)Cc1c[nH]cn1)[C@@H](C)O)[C@@H](C)O)C(=O)N[C@@H](CCCCNC(=O)COCCOCCNC(=O)COCCOCCNC(=O)CC[C@H](NC(=O)CCCCCCCCCCCCCCCCCCC(=O)O)C(=O)O)C(=O)N[C@@H](CCC(=O)O)C(=O)N[C@@H](CCC(=O)O)C(=O)N[C@@H](C)C(=O)NC(C)(C)C(=O)N[C@@H](CC(C)C)C(=O)N[C@@H](CCC(N)=O)C(=O)N[C@@H](CCCNC(=N)N)C(=O)N[C@@H](Cc1ccccc1)C(=O)N[C@@H](CC(C)C)C(=O)N[C@@H](CCC(=O)O)C(=O)N[C@@H](Cc1c[nH]cn1)C(=O)N[C@@H](CC(C)C)C(=O)N[C@H](C(N)=O)C(C)C [compound 196] (H-H[Aib]EGTFTSDYSYLK([AEEA-AEEA-γGlu-C20 diacid])EEA[Aib]LQRFLEHLV-NH2) | 20 | 5187 | 0.0126 | 1743 | 0.08 |  |  |  |  |  | 
3 | CC[C@H](C)[C@H](NC(=O)[C@H](Cc1ccccc1)NC(=O)[C@H](CCCNC(=N)N)NC(=O)[C@H](CCC(N)=O)NC(=O)[C@H](CC(C)C)NC(=O)[C@H](C)NC(=O)[C@H](C)NC(=O)CNC(=O)[C@H](CCC(=O)O)NC(=O)[C@H](CC(C)C)NC(=O)[C@H](CC(C)C)NC(=O)[C@H](CCCNC(=N)N)NC(=O)[C@H](CO)NC(=O)[C@@H](NC(=O)[C@H](CC(=O)O)NC(=O)[C@H](CO)NC(=O)[C@@H](NC(=O)[C@H](Cc1ccccc1)NC(=O)[C@@H](NC(=O)CNC(=O)[C@H](CCC(=O)O)NC(=O)C(C)(C)NC(=O)[C@@H](N)Cc1c[nH]cn1)[C@@H](C)O)[C@@H](C)O)C(C)C)C(=O)N[C@@H](CCC(N)=O)C(=O)N[C@@H](Cc1c[nH]c2ccccc12)C(=O)N[C@@H](CC(C)C)C(=O)N[C@H](C(N)=O)C(C)C [compound 178] (H-H[Aib]EGTFTSDVSRLLEGAALQRFIQWLV-NH2) |  | 29072 |  |  | 0.77 | 63.1 | 0.0631 | 891 |  |  | 
4 | CC(C)C[C@H](NC(=O)[C@H](Cc1ccccc1)NC(=O)[C@H](CCCNC(=N)N)NC(=O)[C@H](CCC(N)=O)NC(=O)[C@H](CCC(N)=O)NC(=O)[C@H](C)NC(=O)[C@H](C)NC(=O)[C@H](CCC(=O)O)NC(=O)[C@H](CCC(=O)O)NC(=O)[C@H](CCCCNC(=O)COCCOCCNC(=O)COCCOCCNC(=O)CC[C@H](NC(=O)CCCCCCCCCCCCCCCCCCC(=O)O)C(=O)O)NC(=O)[C@H](CC(C)C)NC(=O)[C@H](CCCNC(=N)N)NC(=O)[C@H](CO)NC(=O)[C@@H](NC(=O)[C@H](CC(=O)O)NC(=O)[C@H](CO)NC(=O)[C@@H](NC(=O)[C@H](Cc1ccccc1)NC(=O)[C@@H](NC(=O)CNC(=O)[C@H](CCC(=O)O)NC(=O)C(C)(C)NC(=O)[C@@H](N)Cc1c[nH]cn1)[C@@H](C)O)[C@@H](C)O)C(C)C)C(=O)N[C@@H](CCC(=O)O)C(=O)N[C@@H](Cc1c[nH]cn1)C(=O)N[C@@H](CC(C)C)C(=O)N[C@H](C(N)=O)C(C)C [compound 73] (H-H[Aib]EGTFTSDVSRLK([AEEA-AEEA-γGlu-C20 diacid])EEAAQQRFLEHLV-NH2) |  | 14344 |  |  | 0.09 |  |  |  | 79.4 | 10668 | 0.00631
5 | CC(C)C[C@H](NC(=O)[C@H](Cc1ccc(O)cc1)NC(=O)[C@H](CCCNC(=N)N)NC(=O)[C@H](CCC(N)=O)NC(=O)[C@H](CC(C)C)NC(=O)C(C)(C)NC(=O)[C@H](C)NC(=O)[C@H](CCC(=O)O)NC(=O)[C@H](CCC(=O)O)NC(=O)[C@H](CCCCNC(=O)COCCOCCNC(=O)COCCOCCNC(=O)CC[C@H](NC(=O)CCCCCCCCCCCCCCCCCCC(=O)O)C(=O)O)NC(=O)[C@H](CC(C)C)NC(=O)[C@H](Cc1ccc(O)cc1)NC(=O)[C@H](CO)NC(=O)[C@@H](NC(=O)[C@H](CC(=O)O)NC(=O)[C@H](CO)NC(=O)[C@@H](NC(=O)[C@H](Cc1ccccc1)NC(=O)[C@@H](NC(=O)CNC(=O)[C@H](CCC(=O)O)NC(=O)C(C)(C)NC(=O)[C@@H](N)Cc1c[nH]cn1)[C@@H](C)O)[C@@H](C)O)C(C)C)C(=O)N[C@@H](CCC(=O)O)C(=O)N[C@@H](Cc1c[nH]cn1)C(=O)N[C@@H](CC(C)C)C(=O)N[C@H](C(N)=O)C(C)C [compound 141] (H-H[Aib]EGTFTSDVSYLK([AEEA-AEEA-γGlu-C20 diacid])EEA[Aib]LQRYLEHLV-NH2) |  | 3233 |  |  | 0.08 | 251 | 0.00398 | 59910 |  |  | 
6 | CC(C)C[C@H](NC(=O)[C@H](Cc1ccccc1)NC(=O)[C@H](CCCNC(=N)N)NC(=O)[C@H](CCC(N)=O)NC(=O)[C@H](CC(C)C)NC(=O)C(C)(C)NC(=O)[C@H](C)NC(=O)[C@H](CCC(=O)O)NC(=O)[C@H](CCC(=O)O)NC(=O)[C@H](CCCCNC(=O)COCCOCCNC(=O)COCCOCCNC(=O)CC[C@H](NC(=O)CCCCCCCCCCCCCCCCCCC(=O)O)C(=O)O)NC(=O)[C@H](CC(C)C)NC(=O)[C@@H]1CCCN1C(=O)[C@H](CO)NC(=O)[C@@H](NC(=O)[C@H](CC(=O)O)NC(=O)[C@H](CO)NC(=O)[C@@H](NC(=O)[C@H](Cc1ccccc1)NC(=O)[C@@H](NC(=O)CNC(=O)[C@H](CCC(=O)O)NC(=O)C(C)(C)NC(=O)[C@@H](N)Cc1c[nH]cn1)[C@@H](C)O)[C@@H](C)O)C(C)C)C(=O)N[C@@H](CCC(=O)O)C(=O)N[C@@H](Cc1c[nH]cn1)C(=O)N[C@@H](CC(C)C)C(=O)N[C@H](C(N)=O)C(C)C [compound 140] (H-H[Aib]EGTFTSDVSPLK([AEEA-AEEA-γGlu-C20 diacid])EEA[Aib]LQRFLEHLV-NH2) |  | 2733 |  |  | 0.08 | 20000 | 1.26 | 14381 |  |  | 
